# How the values were obtained:
# [1] = biological target: T1, OsTIR1(WT)/mAID-EGFP-NLS expressing cell (Oryza sativa subsp. japonica, UniProt Q7XVM8); assay: FACS analysis of mAID-EGFP-NLS reporter degradation in OsTIR1(WT) expressing HCT116 cell (conventional system); assay type: cell-based, human
# T1 construct: expressed in transfected cells; host or cells: HCT116 (human colon adenocarcinoma-derived cell)
# Description: (§1) An HCT116 cell (human colon adenocarcinoma-derived cell) having DNA in which an OsTIR1(WT) or OsTIR1(F74G) and an mAID-EGFP (green fluorescent protein)-NLS (nuclear localization signal) were encoded through a P2A sequence inserted onto a chromosome by a transposon (hereinafter, referred to as “OsTIR1(WT)/mAID-EGFP-NLS expressing cell” or “OsTIR1(F74G)/mAID-EGFP-NLS expressing cell”) was prepared (refer to FIG. 1).
# (§2) The auxin analog (concentration in culture medium: 0, 200 μM) was added to the OsTIR1(F74G)/mAID-EGFP-NLS expressing cell and cultured for 24 hours. In addition, as a control, a cell containing an auxin added to the OsTIR1(WT)/mAID-EGFP-NLS expressing cell was also prepared.
# (§3) After 24 hours from the addition of the auxin analog, the cells were collected, and FACS analysis was performed.
# (§4) Furthermore, the same experiment was performed by adding 100 μM of an auxin to the OsTIR1(WT)/mAID-EGFP-NLS expressing cell, adding 1 μM of 5-Ph-IAA to the OsTIR1(F74G)/mAID-EGFP-NLS expressing cell, collecting the cells after four hours, and performing FACS analysis.
# (§5) In order to compare OsTIR1(WT) and OsTIR1(F74G) in more detail, the degradation of the mAID-EGFP-NLS reporter was induced using IAA (auxin) and 5-Ph-IAA in different doses, respectively (refer to FIG. 10(A)). […] DC 50 values (concentrations for 50% degradation) were 300±30 nM and 0.45±0.01 nM in OsTIR1(WT) and OsTIR1(F74G), respectively, and it was confirmed that the system in which 5-Ph-IAA was used functioned at an approximately 670-times lower concentration compared with conventional auxin-inducible degron systems.
# In order to investigate dynamics over time attributed to the removal of a target protein, samples after a lapse of time were taken, and the expression levels of the reporter were observed (refer to FIG. 10(B)).
# [2] = biological target: T2, RAD21-mAID-Clover (RAD21-mAC) cell expressing OsTIR1(WT) (Oryza sativa subsp. japonica, UniProt Q7XVM8); assay: RAD21-mAC degradation in HCT116 cell expressing OsTIR1(WT); assay type: cell-based, human; conditions: after the addition of a ligand
# T2 construct: expressed in transfected cells; host or cells: RAD21-mAC cell expressing OsTIR1(WT) (HCT116 implied)
# T2 sequence (Q7XVM8 1-575): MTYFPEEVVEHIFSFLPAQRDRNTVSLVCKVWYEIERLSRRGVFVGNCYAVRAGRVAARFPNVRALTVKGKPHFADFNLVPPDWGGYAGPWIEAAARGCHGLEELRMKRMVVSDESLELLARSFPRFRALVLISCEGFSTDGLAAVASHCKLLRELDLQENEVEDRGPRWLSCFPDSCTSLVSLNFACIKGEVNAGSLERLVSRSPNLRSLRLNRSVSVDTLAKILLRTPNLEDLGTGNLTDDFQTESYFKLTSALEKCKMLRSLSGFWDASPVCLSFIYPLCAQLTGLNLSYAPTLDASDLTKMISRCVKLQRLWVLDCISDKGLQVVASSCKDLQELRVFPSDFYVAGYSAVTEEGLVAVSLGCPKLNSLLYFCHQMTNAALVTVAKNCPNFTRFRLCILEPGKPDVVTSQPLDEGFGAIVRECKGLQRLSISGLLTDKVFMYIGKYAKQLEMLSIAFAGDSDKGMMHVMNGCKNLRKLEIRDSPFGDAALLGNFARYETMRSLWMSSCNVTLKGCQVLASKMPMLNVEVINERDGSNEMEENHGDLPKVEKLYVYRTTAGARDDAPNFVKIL
# Description: (§6) A human HCT116 cell constantly expressing OsTIR1(F74G) was used as a material, an RAD21-mAID-Clover (RAD21-mAC) cell was generated by genome editing, and an effect of the addition of 5-Ph-IAA was confirmed. As shown in FIGS. 13(A) and (B), the expression level of RAD21-mAC was […] in a cell expressing OsTIR1(F74G) than in a cell expressing OsTIR1(WT) at 0 minutes before addition, and basal degradation was shown in conventional AID systems.
# [3] = tested on: yeast strains with mAID tag on MCM10, SLD3 or CDC45; assay: Growth of mAID-tagged yeast strains expressing OsTIR1(WT, F74G or F74A) on plates; assay type: cell-based
# Text: In order to confirm that the AID2 system functions even in yeasts, OsTIR1(WT, F74G or F74A) was introduced into a URA3 gene locus under the control of a GAL1-10 promoter (refer to FIG. 12(A)). After that, an mAID tag was attached to a gene that encodes MCM10, SLD3 or CDC45, which is an essential replication initiator.
# [4] = biological target: T3, SMC2, CTCF and POLR2A to which mAID is added (Oryza sativa subsp. japonica, UniProt Q7XVM8, F74G); assay: Degradation of mAID fused SMC2, CTCF and POLR2A in HCT116 constitutively expressing OsTIR1(F74G); assay type: cell-based, human; conditions: 1 μM
# T3 construct: expressed in transfected cells; host or cells: HCT116 constitutively expressing OsTIR1(F74G); endogenous genes tagged
# Text: Regarding aSMC2 condensin complex, a CTCF insulator protein or the maximum subunit of RNA polymerase 2 (POLR2A) in which it was difficult to produce an AID cell line using an HCT116 cell constantly expressing OsTIR1(WT), whether or not a cell line can be generated with a cell constitutively expressing OsTIR1(F74G) was examined.
# [5] = biological target: T4, RAD21-mAID-Clover (RAD21-mAC) cell expressing OsTIR1(F74G) (Oryza sativa subsp. japonica, UniProt Q7XVM8, F74G); assay: RAD21-mAC degradation in HCT116 cell expressing OsTIR1(F74G); assay type: cell-based, human
# T4 construct: expressed in transfected cells; host or cells: human HCT116 constantly expressing OsTIR1(F74G); RAD21 tagged by genome editing
# Description: as §6
# HCT116 cell = assay: Influence of 5-Ph-IAA treatment on HCT116 cell (cell cycle, colony formation); assay type: cell-based, human; conditions: 1 μM
# Description: As shown in FIG. 9(A) in which the influence of the treatment with 1 μM of 5-Ph-IAA on the HCT116 cell was investigated, no influence was shown on the cell cycle. As shown in FIG. 9(B), no change in the colony formation efficiency was shown. It was confirmed that 5-Ph-IAA is an effective ligand and has no toxicity at 1 μM.
# mAID-EGFP-POLD1 = biological target: T5, mAID-EGFP-POLD1 (Oryza sativa subsp. japonica, UniProt Q7XVM8, F74G); assay: Western blotting of mAID-EGFP-POLD1 degradation in HeLa cell (transposon vector + CRISPR-KO); assay type: cell-based, human; conditions: anti-POLD1 antibody, clones #1 to #3
# T5 construct: P2A linker (self-cleaving; remnant); expressed in transfected cells; host or cells: HeLa; transposon vector plus CRISPR-KO vector
# Text: (§7) In this degradation system, (1) a transposon vector in which an OsTIR1(F74G) gene and an mAID-target gene are connected by a P2A linker gene and (2) a CRISPR-KO vector for knocking out an endogenous target gene containing gRNA and a Cas9 gene are contained.
# (§8) In this degradation system, the OsTIR1(F74G) gene and the mAID-target gene in a genome are integrated by the transposon vector, and an endogenous target gene is knocked out by the CRISPR-KO vector.
# (§9) The transposon vector in which an OsTIR1(F74G) gene and an mAID-EGFP-CENPH or mAID-EGFP-POLD1 target gene were connected by a P2A linker gene was constructed, and this vector was introduced into a HeLa cell together with the CRISPR-KO vector targeting an endogenous CENPH or POLD1 gene. 5-Ph-IAA was added to such a cell, and the degradation of the target protein was confirmed by Western blotting (FIG. 6).
# [6] = biological target: T6, OsTIR1(F74A)/mAID-EGFP-NLS expressing cell (Oryza sativa subsp. japonica, UniProt Q7XVM8, F74A); assay: FACS analysis of mAID-EGFP-NLS reporter degradation in OsTIR1(F74A) expressing cell clones; assay type: cell-based, human
# T6 construct: expressed in transfected cells
# Description: Furthermore, the same experiment was also performed on three clones using an OsTIR1(F74A)/mAID-EGFP-NLS expressing cell.
# mAID-EGFP-CENPH = biological target: T7, mAID-EGFP-CENPH (Oryza sativa subsp. japonica, UniProt Q7XVM8, F74G); assay: Western blotting of mAID-EGFP-CENPH degradation in HeLa cell (transposon vector + CRISPR-KO); assay type: cell-based, human; conditions: anti-CENPH antibody
# T7 construct: P2A linker (self-cleaving; remnant); expressed in transfected cells; host or cells: HeLa; transposon vector plus CRISPR-KO vector
# Text: as §7, §8, §9
# [7] = biological target: T8, OsTIR1(F74G)/DHC1-mAID-Clover expressing cell (Oryza sativa subsp. japonica, UniProt Q7XVM8, F74G); assay: Degradation induction test of DHC1 (microscopy, Western blotting); assay type: cell-based, human
# T8 construct: expressed in transfected cells; host or cells: HCT116; OsTIR1(F74G) gene at the AAVS1 locus; endogenous DHC1 tagged by CRISPR/Cas9 homologous recombination
# Description: A plasmid vector having mAID, clover and a neomycin resistance gene and having a homologous sequence with respect to a DHC1 gene so as to sandwich mAID and the neomycin resistance gene was introduced into the OsTIR1(WT)-expressing HCT116 cell or OsTIR1(F74G)-expressing HCT116 cell using a CRISPR/Cas9 system, and homologous recombination with the endogenous DHC1 gene was performed. Next, after selection by G418, the formed colony was dyed using crystal violet. “DHC1” is the abbreviation for dynein heavy chain 1.
# A degradation induction test of DHC1 was performed using the HCT116 cell expressing OsTIR1(F74G) on which homologous recombination had been performed in the above-described section 2 (hereinafter, referred to as “OsTIR1(F74G)/DHC1-mAID-Clover expressing cell”).
# The compound indicated by the formula (I-2) (also referred to as 5-Ph-IAA) was added to the OsTIR1(F74G)/DHC1-mAID-Clover expressing cell, and the appearance of the cell after 24 hours was observed (FIG. 4(A)).
# Furthermore, the degradation of DHC1 was confirmed by Western blotting (FIG. 4(B)).
# A CRISPR plasmid for adding a degron tag and two donors each having a neomycin-resistant marker or a hygromycin-resistant marker were transfected into a parent cell line constitutively expressing OsTIR1(WT or F74G) (refer to FIG. 14). In an OsTIR1(F74G) expressing cell, a colony was formed in the presence of G418 and hygromycin, and tags were added to DHC1 genes at both alleles (refer to FIG. 15(A)). In a cell expressing OsTIR1(WT), no colony was formed. […] This coincides with the fact that DHC1 is essential for the formation of a spindle that is formed during mitosis.
# [8] = biological target: T9, OsTIR1(F74G)/mAID-EGFP-NLS expressing cell (Oryza sativa subsp. japonica, UniProt Q7XVM8, F74G); assay: FACS analysis of mAID-EGFP-NLS reporter degradation in OsTIR1(F74G) expressing HCT116 cell; assay type: cell-based, human
# T9 construct: expressed in transfected cells; host or cells: HCT116 (human colon adenocarcinoma-derived cell)
# Description: as §1, §2, §3, §4, §5
# In order to investigate dynamics over time attributed to the removal of a target protein, samples after a lapse of time were taken, and the expression levels of the reporter were observed (refer to FIG. 10(B)). […]
smiles,measurement,setting,value
O=C(O)Cc1c[nH]c2ccccc12 [IAA],degradation of mAID-EGFP-NLS reporter,"[1]; 100 μM, four hours",the reporter was degraded
same,half-life of reporter degradation,"[1]; conventional system, OsTIR1(WT)",147.1 ± 12.5 min
same,DC50,"[1]; mAID-EGFP-NLS reporter, OsTIR1(WT), HCT116, read-out: DC 50 values (concentrations for 50% degradation)",300 ± 30 nM
same,T1/2 of RAD21-mAC,[2],26.5 min
same,growth of mAID-introduced yeast strains,"[3]; 500 μM, OsTIR1(WT and F74A)",growth suppression
"O=C(O)Cc1c[nH]c2ccc(-c3ccccc3)cc12 [5-Ph-IAA, 5-phenyl-indole 3-acetic acid]","degradation of mAID fused targets (SMC2, CTCF, POLR2A)",[4],rapidly degraded
same,cell cycle of RAD21-mAC degraded cells,[5],arrested in the G2/M phase
same,sister chromatid cohesion of RAD21-mAC degraded cell,[5],profound defect
same,T1/2 of RAD21-mAC,[5]; after the addition of a ligand,11.7 min
same,colony formation efficiency,HCT116 cell,no change
same,influence on the cell cycle,HCT116 cell,no influence
same,toxicity,HCT116 cell,no toxicity
same,degradation of mAID-EGFP-POLD1 by Western blotting,mAID-EGFP-POLD1,degradation of mAID-EGFP-POLD1 was confirmed
same,degradation of mAID-EGFP-NLS reporter in clones,[6],degradation was induced
same,degradation of mAID-EGFP-CENPH by Western blotting,mAID-EGFP-CENPH,degradation of mAID-EGFP-CENPH was confirmed
same,growth of mAID-introduced yeast strains,"[3]; plates containing 5 μM, OsTIR1(F74G or F74A)",strong growth inhibition
same,cell cycle phenotype after DHC1-mAC degradation,[7]; 1 μM,arrested in mitosis
same,mitotic spindle formation after DHC1-mAC degradation,[7]; 1 μM,strong defect in mitotic spindle formation
same,degradation of DHC1-mAC,"[7]; 1 μM, clone with tags at both alleles",more efficiently degraded
same,cell phenotype after DHC1 degradation,[7]; after 24 hours,accumulation of cells in the mitotic period was observed
same,degradation of DHC1-mAID-Clover fused protein (microscopy),[7]; after 24 hours,degraded a DHC1-mAID-Clover fused protein
same,degradation of DHC1 by Western blotting,[7]; clones #1 to #3,degradation of DHC1 and mAID was confirmed
same,effect of inducing the degradation of the mAID-EGFP-NLS reporter,"[8]; 1 nM and 10 nM, compared with the other auxin analogs",stronger effect
same,degradation of mAID-EGFP-NLS reporter,"[8]; 1 μM, four hours",efficiently degraded
same,half-life of reporter degradation,"[8]; AID2 system, OsTIR1(F74G)",62.3 ± 2.0 min
same,times lower concentration compared with conventional auxin-inducible degron systems,[8]; DC50 OsTIR1(WT)/IAA versus OsTIR1(F74G)/5-Ph-IAA,approximately 670 times
same,degradation of mAID-EGFP-NLS reporter in clones,[8]; OsTIR1(F74G) clones compared with OsTIR1(F74A) clone,sharper degradation
same,recovery of reporter expression after exchange to culture medium containing no 5-Ph-IAA,"[8]; OsTIR1(F74G), after degradation induction",fully recovered after three hours
same,DC50,"[8]; read-out: DC 50 values (concentrations for 50% degradation), mAID-EGFP-NLS reporter, OsTIR1(F74G), HCT116",0.45 ± 0.01 nM
